Assay results as given in ChEMBL document CHEMBL1201862, “PubChem BioAssay data set” (2004).
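48-hour exposure; five concentrations; linearly interpolated endpoints. GI50 marks 50% less growth.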 Calls of active or inactive are those of the source. No stated cut-off is given here; in the data, active = GI50 up to about 1.1 µM and inactive = higher.

Tests used:
Experiment in all cases: NCI anticancer screen, dose series, 48 h
[1] = tested on: MDA-MB-435
[2] = tested on: NCI/ADR-RES
[3] = tested on: OVCAR-8
[4] = tested on: HL-60
[5] = tested on: Malme-3M
[6] = tested on: NCI-H226
[7] = tested on: PC-3
[8] = tested on: HCT-116
[9] = tested on: NCI-H23
[10] = tested on: A498
[11] = tested on: HCT-15
[12] = tested on: NCI-H522
[13] = tested on: SF-268
[14] = tested on: HCC 2998
[15] = tested on: HOP-92
[16] = tested on: SF-539
[17] = tested on: EKVX
[18] = tested on: M14
[19] = tested on: SK-MEL-28
[20] = tested on: CAKI-1

For Cc1ccc2c(c1C)C(=O)/C(=C/c1cccc(C)c1C(=O)O)C2, the GI50 [1] was 52.7 µM (inactive), the GI50 [2] was 59.8 µM (inactive) and the GI50 [3] was 86.5 µM (inactive). For the same compound, the GI50 [4] was 48.6 µM (inactive), the GI50 [5] was 71 µM (inactive) and the GI50 [6] was 43.1 µM (inactive). The GI50 [7] was 57.5 µM (inactive), the GI50 [8] was 48.4 µM (inactive) and the GI50 [9] was > 100 µM (inactive). For the same compound, the GI50 [10] was > 45.1 µM (inactive), the GI50 [11] was 51.3 µM and the GI50 [12] was 40.1 µM (inactive). The GI50 [13] was > 91.4 µM (inactive), the GI50 [14] was 51.5 µM (inactive) and the GI50 [15] was 19.2 µM (inactive). For the same compound, the GI50 [16] was 69.2 µM (inactive), the GI50 [17] was > 100 µM (inactive) and the GI50 [18] was 63.2 µM (inactive). The GI50 [19] was 79.3 µM (inactive).

In the case of CCCCCC(C)C[C@H]1CO[C@H](c2ccc[nH]2)N[C@H]1C(=O)OC (stereo partly drawn), the GI50 [1] is reported as > 100 µM (inactive), the GI50 [2] is reported as > 100 µM (inactive) and the GI50 [3] is reported as > 100 µM (inactive). For the same compound, the GI50 [4] was > 100 µM (inactive), the GI50 [5] was > 100 µM (inactive) and the GI50 [7] was > 100 µM (inactive). The GI50 [8] was > 100 µM (inactive), the GI50 [9] was > 100 µM (inactive) and the GI50 [10] was > 100 µM (inactive). For the same compound, the GI50 [11] was > 100 µM, the GI50 [12] was > 100 µM (inactive) and the GI50 [13] was > 100 µM (inactive). The GI50 [14] was > 100 µM (inactive), the GI50 [15] was 29.9 µM (inactive) and the GI50 [16] was > 100 µM (inactive). For the same compound, the GI50 [20] was > 100 µM (inactive), the GI50 [17] was > 100 µM (inactive) and the GI50 [18] was > 100 µM (inactive). For the same compound, the GI50 [19] was > 100 µM (inactive).

For COC(=O)/C=C1\C(=O)Nc2ccc(Br)cc21, the GI50 [1] was 1.87 µM (inactive), the GI50 [2] was 1.91 µM (inactive) and the GI50 [3] was 2.14 µM (inactive). The GI50 [4] was 1.59 µM (inactive), the GI50 [5] was 2.33 µM (inactive) and the GI50 [6] was 1.72 µM (inactive). The GI50 [7] was 1.43 µM (inactive), the GI50 [8] was 1.36 µM (inactive) and the GI50 [9] was 1.54 µM (inactive). For the same compound, the GI50 [10] was 5.22 µM (inactive), the GI50 [11] was 1.16 µM and the GI50 [12] was 0.743 µM (active). For the same compound, the GI50 [13] was 3.49 µM (inactive), the GI50 [14] was 2.22 µM (inactive) and the GI50 [15] was 1.88 µM (inactive). For the same compound, the GI50 [20] was 1.04 µM (active), the GI50 [17] was 1.77 µM (inactive) and the GI50 [18] was 2.24 µM (inactive). The GI50 [19] was 2.68 µM (inactive).

With COC1C(=O)N(SC)C1c1ccccc1Cl (stereo not drawn) the GI50 [1] was 21.3 µM (inactive), the GI50 [2] was 68.1 µM (inactive) and the GI50 [3] was 19.6 µM (inactive). The GI50 [4] was 16.7 µM (inactive), the GI50 [5] was 22.6 µM (inactive) and the GI50 [7] was 86.7 µM (inactive). The GI50 [8] was 11.3 µM (inactive), the GI50 [9] was > 100 µM (inactive) and the GI50 [10] was > 100 µM (inactive). The GI50 [11] was 22.3 µM, the GI50 [12] was 16.6 µM (inactive) and the GI50 [13] was > 100 µM (inactive). For the same compound, the GI50 [14] was 14.7 µM (inactive), the GI50 [15] was 36.1 µM (inactive) and the GI50 [16] was 19.6 µM (inactive). The GI50 [20] was 80.5 µM (inactive), the GI50 [17] was 24.4 µM (inactive) and the GI50 [18] was 28.1 µM (inactive). For the same compound, the GI50 [19] was > 100 µM (inactive).

O=C1CC(=O)NC(NN2C(=O)/C(=C/c3ccc(Cl)c(Cl)c3)N=C2c2ccccc2)=N1 was tested, and the GI50 [1] was 27 µM (inactive), the GI50 [2] was 19.8 µM (inactive) and the GI50 [3] was 34 µM (inactive). The GI50 [5] was 34.8 µM (inactive), the GI50 [6] was 32.1 µM (inactive) and the GI50 [7] was 23.1 µM (inactive). The GI50 [8] was 17.7 µM (inactive), the GI50 [9] was 26.7 µM (inactive) and the GI50 [10] was 23.4 µM (inactive). For the same compound, the GI50 [11] was 30.3 µM, the GI50 [12] was 30.8 µM (inactive) and the GI50 [13] was 24.5 µM (inactive). The GI50 [14] was 19.7 µM (inactive), the GI50 [15] was 27 µM (inactive) and the GI50 [16] was 20.8 µM (inactive). For the same compound, the GI50 [20] was 85.3 µM (inactive), the GI50 [18] was 28.8 µM (inactive) and the GI50 [19] was 28.8 µM (inactive).

With CN(N=O)c1nc2c(C(N)=O)ncn2s1 the GI50 [1] was 53.2 µM (inactive), the GI50 [2] was 39.7 µM (inactive) and the GI50 [3] was 30.5 µM (inactive). For the same compound, the GI50 [5] was 85.7 µM (inactive), the GI50 [6] was > 100 µM (inactive) and the GI50 [7] was 91.2 µM (inactive). For the same compound, the GI50 [8] was 53 µM (inactive), the GI50 [9] was > 100 µM (inactive) and the GI50 [10] was > 100 µM (inactive). The GI50 [11] was > 100 µM, the GI50 [12] was 76.4 µM (inactive) and the GI50 [13] was 55.5 µM (inactive). For the same compound, the GI50 [14] was 45.6 µM (inactive), the GI50 [15] was 32.7 µM (inactive) and the GI50 [16] was 80.7 µM (inactive). The GI50 [20] was 28.1 µM (inactive), the GI50 [17] was > 100 µM (inactive) and the GI50 [18] was 15.7 µM (inactive). For the same compound, the GI50 [19] was > 100 µM (inactive).

With Cc1nnc(-n2c(O)cc(=O)n(-c3ccccc3)c2=S)nc1/C=C/c1ccc(N(C)C)cc1 the GI50 [1] was 5.62 µM (inactive), the GI50 [2] was 14.3 µM (inactive) and the GI50 [3] was 9.59 µM (inactive). For the same compound, the GI50 [4] was 2.7 µM (inactive), the GI50 [5] was 2.69 µM (inactive) and the GI50 [6] was 32.3 µM (inactive). For the same compound, the GI50 [7] was 8.41 µM (inactive), the GI50 [8] was 11.9 µM (inactive) and the GI50 [9] was 8.36 µM (inactive). For the same compound, the GI50 [10] was 27.1 µM (inactive), the GI50 [11] was 4.88 µM and the GI50 [12] was 1.32 µM (inactive). For the same compound, the GI50 [13] was 22.4 µM (inactive), the GI50 [14] was 6.49 µM (inactive) and the GI50 [15] was 21.5 µM (inactive). The GI50 [20] was 5.7 µM (inactive), the GI50 [17] was 9.23 µM (inactive) and the GI50 [18] was 13.7 µM (inactive). The GI50 [19] was 18.5 µM (inactive).

With Cc1oc2nc1C(=O)NCc1nc(cs1)C(=O)N[C@H](C(C)C)c1nc(cs1)C(=O)N[C@H]2C the GI50 [1] was > 100 µM (inactive), the GI50 [2] was 30.1 µM (inactive) and the GI50 [3] was 35.2 µM (inactive). The GI50 [5] was > 100 µM (inactive), the GI50 [6] was 42.9 µM (inactive) and the GI50 [7] was 40.3 µM (inactive). The GI50 [8] was 45.8 µM (inactive), the GI50 [9] was > 100 µM (inactive) and the GI50 [10] was > 100 µM (inactive). For the same compound, the GI50 [11] was 52.8 µM, the GI50 [12] was 26.7 µM (inactive) and the GI50 [13] was 85.5 µM (inactive). The GI50 [14] was 43.7 µM (inactive), the GI50 [15] was 61.1 µM (inactive) and the GI50 [16] was 42.3 µM (inactive). The GI50 [20] was 44.9 µM (inactive), the GI50 [17] was > 100 µM (inactive) and the GI50 [18] was > 100 µM (inactive). The GI50 [19] was > 100 µM (inactive).

For N#CC1(C#N)C(c2ccccc2)NC23CCCCC2C1(C#N)C(=O)N3 (stereo not drawn), the GI50 [1] was > 100 µM (inactive), the GI50 [2] was > 100 µM (inactive) and the GI50 [3] was > 100 µM (inactive). The GI50 [5] was > 100 µM (inactive), the GI50 [6] was > 100 µM (inactive) and the GI50 [7] was > 100 µM (inactive). The GI50 [8] was > 100 µM (inactive), the GI50 [9] was > 100 µM (inactive) and the GI50 [10] was > 100 µM (inactive). The GI50 [11] was > 100 µM, the GI50 [12] was > 100 µM (inactive) and the GI50 [13] was > 100 µM (inactive). The GI50 [14] was > 100 µM (inactive), the GI50 [15] was > 100 µM (inactive) and the GI50 [16] was > 100 µM (inactive). For the same compound, the GI50 [20] was > 100 µM (inactive), the GI50 [17] was > 100 µM (inactive) and the GI50 [18] was > 100 µM (inactive). For the same compound, the GI50 [19] was > 100 µM (inactive).

With C/C(C[n+]1ccccc1)=N\N=C(N)N the GI50 [1] was > 100 µM (inactive), the GI50 [2] was > 100 µM (inactive) and the GI50 [3] was > 100 µM (inactive). The GI50 [4] was > 100 µM (inactive), the GI50 [5] was > 100 µM (inactive) and the GI50 [6] was > 100 µM (inactive). For the same compound, the GI50 [7] was > 100 µM (inactive), the GI50 [8] was > 100 µM (inactive) and the GI50 [9] was > 100 µM (inactive). For the same compound, the GI50 [10] was > 100 µM (inactive), the GI50 [11] was > 100 µM and the GI50 [12] was > 100 µM (inactive). The GI50 [13] was > 100 µM (inactive), the GI50 [14] was > 100 µM (inactive) and the GI50 [15] was > 100 µM (inactive). The GI50 [20] was > 100 µM (inactive), the GI50 [17] was > 100 µM (inactive) and the GI50 [18] was > 100 µM (inactive). The GI50 [19] was > 100 µM (inactive).

With NC(CP(=O)(O)O)C(=O)O (stereo not drawn) the GI50 [1] was > 100 µM (inactive), the GI50 [2] was > 100 µM (inactive) and the GI50 [3] was > 100 µM (inactive). For the same compound, the GI50 [4] was > 100 µM (inactive), the GI50 [5] was > 100 µM (inactive) and the GI50 [6] was > 100 µM (inactive). The GI50 [7] was > 100 µM (inactive), the GI50 [8] was > 100 µM (inactive) and the GI50 [9] was > 100 µM (inactive). For the same compound, the GI50 [10] was > 100 µM (inactive), the GI50 [11] was > 100 µM and the GI50 [12] was > 100 µM (inactive). The GI50 [13] was > 100 µM (inactive), the GI50 [14] was > 100 µM (inactive) and the GI50 [15] was > 100 µM (inactive). For the same compound, the GI50 [20] was > 100 µM (inactive), the GI50 [17] was > 100 µM (inactive) and the GI50 [18] was > 100 µM (inactive). For the same compound, the GI50 [19] was > 100 µM (inactive).
